Data taken from US7728105B2, “Peptides impairing PBX dependent gene regulation” (St. George's Hospital Medical School, priority 2002, dated 2010).
Entries after “also recorded” stand apart in the source; their conditions may differ.

Legend:
Type in all cases: cell-based, human
[1] = test system: Hox genes in malignant cell lines; experiment: RT-PCR of HOX gene expression in malignant cell lines; conditions: 20 μg/ml, at least two different Hox genes in each case
Description: A number of cell lines representing different malignancies were grown in culture for seven days, and HXP peptide or the control peptide CXP were added to a final concentration of 20 μg/ml on day 3. The bars represent the fold increase of each cell line over the seven days; the empty, dashed bars indicate the CXP peptide treated cells, whilst the solid bars indicate the addition of HXP peptide. Error bars represent the standard error the mean, and n is the number of experiments performed. The cell lines used were: AML—KG1a; Bladder—HT; Breast—SKBR3; Cervical—HeLa; Colon—Colo41; Gastric—MKN-45; Large cell lung cancer—MES; Melanoma—DX3; Ovarian—1847; Pancreatic—Panc-Tu1; Prostate—LNCAP; Renal—HT1376; Small cell lung cancer—NCI-h510A. The change in the expression of the HOX genes expressed by each cell line was assessed by RT-PCR on RNA extracted from the cells at the end of seven days. ‘HOX gene inactivated’ means that the level of expression of each of the listed HOX genes was at least five fold lower in the HXP peptide treated cells compared to the control. *Analysis not yet complete.
The sequences of RT-PCR primers used are set out below. For each primer pair, the amplified region is given in relation to the known gene sequence as available through GenBank (http://www.ncbi.nlm.nih.gov/entrez).

[2] = test system: PBX1, 2 and 3 association with HOX proteins; experiment: Cross-linking and Western blot of PBX proteins in KG1a cells (Example 2); conditions: 24 hours, 1 μM peptide, EDC cross-linking
Description: HXP and control peptides were as described in Example 1. KG1a cells were grown as described in Example 1. KG1a cells were cultured for 24 hours without treatment, or in the presence of 1 μM HXP peptide or control peptide. The cells were harvested and lysed. One aliquot of the cells was subject to cross-linking. Frozen cells were lysed using standard techniques and […] of lysate was incubated for 30 minutes at room temperature in 4 mM 1-ethyl-3-[3-(dimethyl-amino)propyl]carbodimide (EDC), 4 mM sulpho-NHS, 20 mM HEPES (pH 7.5), 5 mM MgCl2, and 0.03% (w/v) […] to cross-link non-covalently associated proteins. The reaction was stopped by the addition of ammonium acetate to a final concentration of 50 mM. The other aliquot was frozen without cross-linking.
Proteins were extracted from the cells of both aliquots by standard techniques and separated by gel electrophoresis. The gels were probed by Western blot with an antibody raised against PBX1, 2 and 3 (sc-888, Santa Cruz Inc. USA) or an anti-beta actin antibody (sc-1615, Santa Cruz Inc. USA).

KG1a cells = experiment: RT-PCR of stem/progenitor and maturation markers in KG1a cells; conditions: 7 days of treatment
Description: Total RNA was extracted from cultured human cells using the Rneasy mini kit (Quiagen) and following the manufacturer's instructions. 3 μg of RNA was used in subsequent reverse transcription reactions. The RNA was mixed with a poly T15 oligo to 5 microgrammes/ml and heated to 75° C. for 5 minutes. After cooling on ice, the following additional reagents were added; dNTPs to 0.4 mM, RNase OUT (Promega) to 1.6 U/μl, Moloney Murine Leukemia Virus Reverse Transcriptase (M-MLRvT) RnaseH— point mutant (Promega) to 8 U/μl and the appropriate buffer (supplied by the manufacturer) to x1 concentration. The mixture was incubated for one hour at 37° C., heated to 70° C. for two minutes and cooled on ice.
PCR reactions were all performed in a total volume of 40 μl. For each we used 1 μl of the M-MLRvT reaction (as described above), 0.2 nmols of each primer and 20 microliters of Redimix pre-mixed PCR components (Sigma). All reactions were cycled at 94° C. for 30 seconds, 55° C. for 30 seconds and 72° C. for 60 seconds. 30 cycles were used for all primer sets except those for beta-actin, for which 23 cycles were used.

[3] = test system: KG1a, KG1, HL60 and U937 cells; experiment: Cell cycle analysis (propidium iodide, flow cytometry) of leukaemic cell lines (Example 1)
Description: Cells to be investigated were harvested and washed in PBS at 400 g for 10 min. Pelleted cells were then fixed in ice-cold 70% ethanol. Fixed cells were subsequently washed twice in PBS (600 g; 10 min) and incubated in 100 μl of ribonuclease (100 μg/ml; Sigma Aldrich) for 5 min (room temperature) prior to addition of 400 μl of propidium iodide (50 μg/ml; Sigma Aldrich) and 30 minutes incubation (37° C.). Cells were then analysed for cell cycle status on FACScan flow cytometer (Becton Dickinson, USA) and using WinMDI and Cylchred softwares.

PBX/HOX dimers = experiment: Western blotting of PBX and PBX/HOX dimers in CD133+ cells (Example 3); conditions: 20 μg/ml, EDC cross-linking
Description: CD133+ cells (another name for AC133+ cells) were seeded in duplicate at 4×10^4 cells/ml in IMDM (Life Technologies), 10% FCS (Sigma Aldrich) and gentamycin (50 μg/ml Life Technologies) and Thrombopoietin (TPO) 10 ng/ml, Flt3-Ligand (FL) 50 ng/ml & c-KitL (K) 20 ng/ml), all obtained from R and D systems Ltd., UK. (Forraz et al., 2002). The HXP peptide (N-term: WYPWMKKHHRQIKIWFQNRRMKWKK: C-term; Eurogentec, Belgium) and control CXP peptide (N-term: WCCLADRHGRQIKIWFQNRRMKWKK: C-term; Eurogentec, Belgium) were added to culture medium at a concentration of 20 μg/ml. To withdraw peptides from culture, cells were washed twice in IMDM or RPMI and reseeded at prewash cell densities. Primary cells were cultured for 3 weeks at 37° C., 5% CO2 in humidified atmosphere and enumerated by a […] exclusion method with a heamocytometer.
Protein was extracted from HXP-treated or CXP-treated CD133+ cells (20 μg/ml). C-20 antibody that recognises all three human PBX gene proteins (sc-888, Santa Cruz Biotechnology Inc., USA; Monica et al., 1991). Protein cross linking was performed with 2 mM 1-ethyl-3-[3-(dimethylamino)propyl]carbodiimide (EDC) (Pierce Biotechnology, USA), in cell lysates diluted 1:10 in conjugation buffer (0.1M 2-[N-morpholino]ethane sulphonic acid, pH 5). […]

[4] = test system: KG1a, HL60 and U937 leukaemic cell lines; experiment: Growth of leukaemic cell lines over 48 hours (Example 3); conditions: 20 μg/ml
Description: KG1a, HL60 and U937 cell lines were seeded as described in Example 1.
All cell lines were grown with HXP peptide (20 μg/ml) or CXP (20 μg/ml). Cell lines were cultured for various time points at 37° C., 5% CO2 in humidified atmosphere and enumerated at various time points.

WYPWMKKHHRQIKIWFQNRRMKWKK [HXP peptide]
Hox gene expression in each cancer cell line with reduced proliferation [1]: transcriptionaly silenced
association of PBX proteins with other proteins (HOX proteins) [2]: none of the PBX isoforms from the HXP peptide treated cells were associated with other proteins
markers of maturation/differentiation (CD38) (KG1a cells): elevated
markers of stem/progenitor cells (AC133, CD34, HOXB4, HOXB8 and HOXA9) (KG1a cells): diminished
effect on cell cycle of more mature leukaemic cells ([3]; HL60 and U937): slowed
effect on cell cycle of immature leukaemic cells ([3]; KG1 and KG1a): may be propelled into the cell cycle
binding of PBX to other proteins / formation of PBX/HOX dimers (PBX/HOX dimers): prevented binding of PBX to other proteins; also recorded: distrupted the formation of PBX/HOX dimers
cell growth inhibition on leukaemic cell lines [4]: potent cell growth inhibition
time at which cell growth inhibition is apparent [4]: two
